Consider four compounds from article PMC10581841, “Rapid Separation of Asiatic Acid, Quercetin, and Kaempferol from Traditional Chinese Medicine Centella asiatica (L.) Urban Using HSCCC-Semi-Prep-HPLC and the Assessment of Their Potential as Fatty Acid Synthase Inhibitors” (International Journal of Analytical Chemistry, 2023).

Read-outs that look alike come from different tables or passages of the source.

The assay deals with T1, fatty acid synthetase (FAS) (Anas platyrhynchos, UniProt A0A0D3LZ43).
T1 construct: native enzyme purified from fresh duck liver
As to the kind of experiment: UV spectrophotometric FAS activity assay at […] nm (NADPH). The class given is biochemical.

[1] abbreviates: read-out: IC50 (μg/mL) (converted).

T1 sequence (A0A0D3LZ43 1-2514): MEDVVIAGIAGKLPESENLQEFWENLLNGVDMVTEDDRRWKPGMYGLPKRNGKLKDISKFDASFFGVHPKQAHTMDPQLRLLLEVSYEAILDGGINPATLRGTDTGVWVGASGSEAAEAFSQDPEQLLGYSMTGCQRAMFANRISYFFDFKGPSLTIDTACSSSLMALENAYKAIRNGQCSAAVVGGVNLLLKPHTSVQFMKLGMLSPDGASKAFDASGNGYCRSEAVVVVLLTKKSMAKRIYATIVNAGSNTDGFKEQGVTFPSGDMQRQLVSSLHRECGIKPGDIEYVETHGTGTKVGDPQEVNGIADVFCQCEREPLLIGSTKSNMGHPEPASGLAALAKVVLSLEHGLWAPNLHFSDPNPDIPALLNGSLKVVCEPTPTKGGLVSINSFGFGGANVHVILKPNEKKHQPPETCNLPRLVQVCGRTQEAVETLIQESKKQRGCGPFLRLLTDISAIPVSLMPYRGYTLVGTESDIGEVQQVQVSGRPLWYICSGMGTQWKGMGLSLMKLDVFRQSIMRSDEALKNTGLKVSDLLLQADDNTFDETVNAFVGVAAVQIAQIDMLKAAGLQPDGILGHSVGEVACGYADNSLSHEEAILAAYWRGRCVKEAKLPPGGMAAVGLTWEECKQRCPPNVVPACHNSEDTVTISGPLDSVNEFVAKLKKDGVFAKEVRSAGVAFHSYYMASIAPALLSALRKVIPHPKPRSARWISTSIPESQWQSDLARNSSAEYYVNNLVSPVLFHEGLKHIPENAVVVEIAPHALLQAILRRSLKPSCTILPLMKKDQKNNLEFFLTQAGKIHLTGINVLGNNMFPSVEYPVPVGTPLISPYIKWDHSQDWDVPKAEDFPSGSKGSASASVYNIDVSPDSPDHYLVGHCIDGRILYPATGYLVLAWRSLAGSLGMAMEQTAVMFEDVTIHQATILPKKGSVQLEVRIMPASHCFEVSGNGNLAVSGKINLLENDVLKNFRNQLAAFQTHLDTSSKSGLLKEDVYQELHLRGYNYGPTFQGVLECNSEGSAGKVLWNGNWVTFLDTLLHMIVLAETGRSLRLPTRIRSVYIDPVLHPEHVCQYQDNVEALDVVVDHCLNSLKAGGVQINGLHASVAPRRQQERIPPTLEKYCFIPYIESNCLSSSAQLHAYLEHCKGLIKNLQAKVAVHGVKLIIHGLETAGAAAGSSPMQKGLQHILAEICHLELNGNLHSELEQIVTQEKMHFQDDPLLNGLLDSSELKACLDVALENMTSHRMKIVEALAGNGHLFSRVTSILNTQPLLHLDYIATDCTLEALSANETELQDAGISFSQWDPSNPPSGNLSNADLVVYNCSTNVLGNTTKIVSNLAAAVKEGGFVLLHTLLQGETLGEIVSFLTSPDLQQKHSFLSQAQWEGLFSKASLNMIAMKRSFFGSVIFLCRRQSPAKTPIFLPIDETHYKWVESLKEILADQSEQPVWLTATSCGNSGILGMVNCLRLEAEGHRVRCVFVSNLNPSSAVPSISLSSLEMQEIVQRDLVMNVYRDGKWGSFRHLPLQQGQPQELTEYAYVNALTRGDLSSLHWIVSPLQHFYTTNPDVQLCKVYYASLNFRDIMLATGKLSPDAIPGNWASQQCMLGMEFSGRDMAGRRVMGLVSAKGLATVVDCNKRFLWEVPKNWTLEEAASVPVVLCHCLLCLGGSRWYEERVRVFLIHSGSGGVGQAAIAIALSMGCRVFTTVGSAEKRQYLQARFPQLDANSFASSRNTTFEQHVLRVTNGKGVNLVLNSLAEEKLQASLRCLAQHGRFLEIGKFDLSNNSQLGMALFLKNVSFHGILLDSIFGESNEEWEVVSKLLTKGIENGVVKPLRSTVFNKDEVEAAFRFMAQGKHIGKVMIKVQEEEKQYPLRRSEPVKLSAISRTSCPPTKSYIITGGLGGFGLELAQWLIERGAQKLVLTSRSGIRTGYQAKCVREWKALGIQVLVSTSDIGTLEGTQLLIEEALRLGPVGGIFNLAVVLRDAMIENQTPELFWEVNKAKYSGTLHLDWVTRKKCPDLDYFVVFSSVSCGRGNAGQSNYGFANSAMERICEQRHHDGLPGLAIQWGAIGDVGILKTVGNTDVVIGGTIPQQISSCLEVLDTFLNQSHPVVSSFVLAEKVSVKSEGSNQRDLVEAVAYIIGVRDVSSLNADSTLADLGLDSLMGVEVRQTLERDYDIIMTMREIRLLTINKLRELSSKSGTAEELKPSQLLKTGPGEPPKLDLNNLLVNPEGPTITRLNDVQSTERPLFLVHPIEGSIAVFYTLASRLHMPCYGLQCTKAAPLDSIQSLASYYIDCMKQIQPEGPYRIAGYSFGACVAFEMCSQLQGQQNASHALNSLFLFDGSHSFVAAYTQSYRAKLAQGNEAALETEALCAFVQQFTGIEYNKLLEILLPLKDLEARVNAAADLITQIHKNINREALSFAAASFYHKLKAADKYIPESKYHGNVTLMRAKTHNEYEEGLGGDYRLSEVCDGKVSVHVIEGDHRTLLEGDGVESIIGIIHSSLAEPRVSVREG

`C[C@H]1[C@H](C)CC[C@]2(C(=O)O)CC[C@]3(C)C(=CC[C@@H]4[C@@]5(C)C[C@@H](O)[C@H](O)[C@@](C)(CO)[C@@H]5CC[C@]43C)[C@H]12` [AA, asiatic acid]: the IC50 under setting [1] is 19.5 µM. Still for that read-out and setting: the value for `O=c1c(O)c(-c2ccc(O)cc2)oc2cc(O)cc(O)c12` [KPL, kaempferol] was 129 µM. `C[C@H]1[C@H](C)CC[C@]2(C(=O)O)CC[C@]3(C)C(=CC[C@@H]4[C@@]5(C)C[C@@H](O)[C@H](O)[C@@](C)(CO)[C@@H]5[C@H](O)C[C@]43C)[C@H]12` [MA, madecassic acid]: the IC50 was 21.5 µM. In the case of `O=c1c(O)c(-c2ccc(O)c(O)c2)oc2cc(O)cc(O)c12` [QCN, quercetin], the IC50 is 143 µM.
